Results on twelve compounds are retold here after ChEMBL document CHEMBL1201862, “PubChem BioAssay data set” (2004).

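Five concentrations, 48 hours, 96-well plates. GI50 marks 50% less growth.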 Activity calls are given as the source filed them. No stated cut-off is given here; in the data, active = GI50 up to about 1.1 µM and inactive = higher.

Some test systems named below: HOP-62; HL-60; MCF7; K562; A498; SK-MEL-28; SF-539; A549; MOLT-4; U-251; UACC-62; HCC 2998; PC-3; SK-MEL-2; UO-31; LOX IMVI; BT-549; Hs-578T; MDA-MB-231; SR.
What all share (assay): growth of human tumour cells (NCI), 48 h

With `CC(=O)N[C@@H](Cc1ccc(O)cn1)C(=O)NCc1ccc(Cl)cc1`, the GI50 with HOP-62, in the experiment with HL-60, in the experiment on MCF7, in the experiment on K562, with A498 and in the experiment with SK-MEL-28 was > 100 µM (inactive) in each case. Besides, the GI50 in the experiment with SF-539, with A549, in the experiment with MOLT-4, in the experiment with U-251, in the experiment on UACC-62 and in the experiment with HCC 2998 was > 100 µM (inactive) throughout. Also, the GI50 in the experiment with PC-3, in the experiment on SK-MEL-2, in the experiment with UO-31, in the experiment on LOX IMVI and in the experiment with BT-549 was > 100 µM (inactive) throughout.
In the case of `CNC(=O)c1nc[nH]c1/N=N/N(C)N`, the GI50 with HOP-62, in the experiment with K562, in the experiment on Hs-578T, with A498, in the experiment on SK-MEL-28 and in the experiment with SF-539 was > 100 µM (inactive) throughout. Moreover, the GI50 with A549, in the experiment with MOLT-4, in the experiment on U-251, in the experiment on UACC-62, with HCC 2998 and in the experiment on MDA-MB-231 was > 100 µM (inactive) throughout. Besides, the GI50 in the experiment on PC-3 is > 100 µM (inactive); in the experiment with SK-MEL-2 it was > 100 µM (inactive); in the experiment with UO-31, > 100 µM (inactive); in the experiment with LOX IMVI it was 74.6 µM (inactive); in the experiment with BT-549, > 100 µM (inactive).
With `CN(C)CCNC(=O)Cn1ccc(=O)c2ccc([N+](=O)[O-])cc21`, the GI50 in the experiment on HOP-62, with HL-60, with MCF7, in the experiment with K562, in the experiment with Hs-578T and in the experiment on A498 was > 100 µM (inactive) throughout. The GI50 in the experiment on SK-MEL-28, in the experiment with SF-539, with A549, in the experiment with MOLT-4, in the experiment on U-251 and with UACC-62 was > 100 µM (inactive) in each case. In addition, the GI50 in the experiment on HCC 2998, in the experiment on PC-3, in the experiment on SK-MEL-2, in the experiment on UO-31, with SR and in the experiment on LOX IMVI was > 100 µM (inactive) each time.
Regarding `O/N=C1/CCCc2nonc21`, the GI50 with HOP-62, with HL-60, with MCF7, with K562, in the experiment with Hs-578T and in the experiment with SK-MEL-28 was > 100 µM (inactive) each time. Besides, the GI50 in the experiment with SF-539, in the experiment with A549, in the experiment with MOLT-4, in the experiment with U-251, with UACC-62 and in the experiment with HCC 2998 was > 100 µM (inactive) in each case. Also, the GI50 in the experiment with MDA-MB-231, in the experiment on PC-3, with SK-MEL-2, with UO-31, in the experiment on SR and in the experiment on LOX IMVI was > 100 µM (inactive) each time.
For `CCCc1c(OC)c(=O)c2c(O)cc(OC)c3c4c(OC)cc(O)c5c(=O)c(OC)c(CCC)c(c1c23)c54`, the GI50 in the experiment on HOP-62 is 6.47 µM (inactive); with MCF7, 3.43 µM (inactive); in the experiment on K562, 2.33 µM (inactive); in the experiment with A498 it was 10.6 µM (inactive); in the experiment with SK-MEL-28, 5.68 µM (inactive); in the experiment on SF-539, 1.49 µM (inactive). Besides, the GI50 with A549 is 1.32 µM (inactive); in the experiment on MOLT-4, 1.6 µM (inactive); with U-251, 0.615 µM (active); with UACC-62, 10.3 µM (inactive); in the experiment with HCC 2998, 14.7 µM (inactive); in the experiment with MDA-MB-231, 2.46 µM (inactive). In addition, the GI50 in the experiment with PC-3 was 2.44 µM (inactive); in the experiment with SK-MEL-2 it was 6.64 µM (inactive); in the experiment with UO-31, 2.62 µM (inactive); in the experiment on SR it was 0.31 µM (active); in the experiment with LOX IMVI, 1.63 µM (inactive); in the experiment with BT-549 it was 2.74 µM (inactive).
Consider `COc1ccccc1N1CCN(CCCNC(=O)c2cc(Cl)c(N)c(Cl)c2)CC1`, for which the GI50 was 29.7 µM (inactive) in the experiment with HOP-62; 15.5 µM (inactive) in the experiment on HL-60; 35.2 µM (inactive) in the experiment with MCF7; 67.1 µM (inactive) with Hs-578T; 42 µM (inactive) with A498; 32.4 µM (inactive) in the experiment with SK-MEL-28. Further, the GI50 with SF-539 is 28.6 µM (inactive); in the experiment on A549, 61.9 µM (inactive); with MOLT-4, 19.8 µM (inactive); in the experiment with U-251 it was 27 µM (inactive); in the experiment on UACC-62, 35 µM (inactive); in the experiment with HCC 2998, 21.5 µM (inactive). Moreover, the values for the GI50 in the experiment with MDA-MB-231, with UO-31 and in the experiment with SR were 22.9 µM (inactive), 21.9 µM (inactive) and 12.7 µM (inactive), respectively.
For `COc1ccc(C)cc1NC(=S)N/N=C/c1ccc(SC)cc1`, the GI50 is 28.8 µM (inactive) in the experiment on HOP-62; 31.8 µM (inactive) in the experiment with HL-60; > 100 µM (inactive) in the experiment on MCF7; 35.4 µM (inactive) in the experiment with K562; > 100 µM (inactive) with Hs-578T; > 100 µM (inactive) in the experiment with A498. For the same compound, the GI50 is 86.7 µM (inactive) in the experiment with SK-MEL-28; 27.8 µM (inactive) with SF-539; > 100 µM (inactive) in the experiment on A549; 45.4 µM (inactive) in the experiment with MOLT-4; > 100 µM (inactive) in the experiment on UACC-62; 75 µM (inactive) in the experiment on PC-3. The GI50 in the experiment with SK-MEL-2 is 55.6 µM (inactive); in the experiment with UO-31, 84.3 µM (inactive); with SR it was 38.5 µM (inactive); with LOX IMVI, 59.6 µM (inactive); with BT-549 it was 49.3 µM (inactive).
For `CC(=O)c1ccc(N2CCN(C3=C(Cl)C(=O)c4c(O)ccc(O)c4C3=O)CC2)cc1`, the GI50 is 8.95 µM (inactive) in the experiment on HOP-62; 0.271 µM (active) in the experiment with HL-60; 1.49 µM (inactive) with MCF7; 2.09 µM (inactive) with K562; 17.6 µM (inactive) with A498; 5.21 µM (inactive) in the experiment on SK-MEL-28. Also, the GI50 is 13.8 µM (inactive) in the experiment with SF-539; 17.5 µM (inactive) in the experiment on A549; 1.68 µM (inactive) in the experiment on MOLT-4; 3.4 µM (inactive) in the experiment with U-251; 2.74 µM (inactive) in the experiment with UACC-62; 15.6 µM (inactive) in the experiment on HCC 2998. The GI50 is 2.51 µM (inactive) in the experiment with MDA-MB-231, 5.64 µM (inactive) in the experiment with PC-3, 10.9 µM (inactive) in the experiment on UO-31 and 2 µM (inactive) in the experiment with SR.
For the compound `CSCCC(NC(c1ccccc1)c1ccccc1)[PH](=O)O` (centres undefined), the GI50 with HOP-62, with HL-60, in the experiment on MCF7, in the experiment with K562, in the experiment with Hs-578T and with SK-MEL-28 was > 100 µM (inactive) throughout. In addition, the GI50 in the experiment on A549, in the experiment on MOLT-4, in the experiment with U-251, in the experiment with UACC-62, in the experiment on PC-3 and with SK-MEL-2 was > 100 µM (inactive) throughout. For the same compound, the GI50 in the experiment on UO-31, in the experiment with SR, in the experiment with LOX IMVI and in the experiment with BT-549 was > 100 µM (inactive) in each case.
`CCOC(=O)/C(=C\NC#N)c1nc2ccccc2[nH]1`: the GI50 in the experiment on HOP-62 was > 100 µM (inactive); with HL-60 it was 45.5 µM (inactive); in the experiment with MCF7 it was > 100 µM (inactive); in the experiment with A498, > 100 µM (inactive); in the experiment on SK-MEL-28, > 100 µM (inactive); in the experiment on SF-539 it was > 100 µM (inactive). Also, the GI50 in the experiment with A549 was > 100 µM (inactive); in the experiment with MOLT-4, 5.75 µM (inactive); in the experiment with UACC-62, 85.1 µM (inactive); with HCC 2998, > 100 µM (inactive); in the experiment with UO-31, 1.28 µM (inactive); in the experiment on SR, 52.7 µM (inactive). In addition, the GI50 in the experiment on LOX IMVI and in the experiment on BT-549 was > 100 µM (inactive) throughout.
As for `O=c1[nH]c(=O)n(CCOc2ccc(Cl)cc2)cc1Nc1ccccc1`, the GI50 was > 100 µM (inactive) in the experiment with HOP-62; > 100 µM (inactive) in the experiment with HL-60; > 100 µM (inactive) in the experiment with MCF7; > 100 µM (inactive) in the experiment on K562; 29.2 µM (inactive) with Hs-578T; > 100 µM (inactive) with A498. The GI50 in the experiment with SK-MEL-28, in the experiment on A549, in the experiment with MOLT-4, in the experiment with U-251, with UACC-62 and with HCC 2998 was > 100 µM (inactive) throughout. The GI50 in the experiment on PC-3 was > 100 µM (inactive); in the experiment with UO-31, 58.5 µM (inactive); in the experiment on SR, > 100 µM (inactive); in the experiment on LOX IMVI, > 100 µM (inactive).
Turning to `CO[C@H](c1ccccc1)[C@H](O)[C@](O)(c1ccccc1)P(=O)(OC)OC`, the GI50 in the experiment with HL-60, in the experiment with K562, in the experiment on A498, in the experiment on SK-MEL-28, in the experiment on SF-539 and in the experiment with A549 was > 100 µM (inactive) throughout. Also, the GI50 in the experiment on MOLT-4, in the experiment with U-251, with UACC-62, in the experiment with HCC 2998, with MDA-MB-231 and with PC-3 was > 100 µM (inactive) in each case. Besides, the GI50 with SK-MEL-2, in the experiment with UO-31, in the experiment with SR, with LOX IMVI and in the experiment on BT-549 was > 100 µM (inactive) in each case.
